For four compounds, ROS generation, complete remission and partial remissions results are on record in patent US20140221301A1, “COMBINATION TREATMENT FOR CANCER” (priority 2011, published 2014).

One assay concerns TEX cells. Put plainly: ROS generation (DCF-DA, DHE) in TEX cells. In kind it is cell-based, human. The conditions noted are these: time-points up to 24 hours. The protocol: FIG. 4. […] (A) Cells from TEX, OCI-AML2 and two primary AML patients were treated with increasing concentrations (2.5 μM and 5 μM) of tigecycline for 36 and 48 hours of tigecycline. Total proteins were extracted and analyzed by western blotting for Cox-1, Cox-2, Cox-4, grp78, XIAP, actin and tubulin. (B) TEX and AML patient cells were treated with increasing concentrations (2.5 μM and 5 μM) of tigecycline. Cox-1, Cox-2, and Cox-4 mRNA expression relative 18S was determined by quantitative RT-PCR. Data is shown as mean±SD. (C) TEX cells were treated with increasing concentrations of tigecycline and chloramphenicol (CAP) for 72 hours. Complex I, II and IV enzyme activity relative to citrate synthase activity was determined as described in materials and methods. (D) Cells from TEX, primary AML patients, and normal donors were treated with increasing concentrations of tigecycline. Mitochondrial membrane potential (ΔΨ) was determined by staining cells with JC-1 dye, and flow cytometry analysis (Red/Green ratio). Reactive oxygen species generation (ROS) was determined by staining with h2-DCFDA and Dihydroethidium (DHE).
A byproduct of the mitochondrial enzyme activities of the electron transport chain is the generation of reactive oxygen species (ROS). […] Therefore, the role of tigecycline on ROS generation in leukemia cells by analyzing hydrogen peroxide ions (H2O2) using a dichlorofluorescein dye (DCF-DA), and superoxide anions using dihydroethidium (DHE) was examined.

Assay [1] has as its system acute myeloid leukemia (AML). The conditions noted are these: 13 patients treated; cited from earlier work.

In the case of `CC[C@H]1/C=C/C=C/C[C@@H](C)[C@H](O)[C@@](C)(O)C(=O)[C@@H](C)[C@H](O)[C@@H](C)C(=O)[C@@H](C)[C@H](O)[C@@H](C)/C=C/C(=O)O[C@@H]2[C@H](C)[C@H](CC1)O[C@]1(CC[C@H](C)[C@H](C[C@@H](C)O)O1)[C@H]2C` [oligomycin], the ROS generation entry with TEX cells was “rapid increases”.
On to `NC(=O)c1ncn([C@@H]2O[C@H](CO)[C@@H](O)[C@H]2O)n1` [ribavirin], for which, in assay [1], the complete remission was 1 and the partial remissions is listed as 2.
As to `C=C(C)[C@H]1Cc2c(ccc3c2O[C@@H]2COc4cc(OC)c(OC)cc4[C@@H]2C3=O)O1` [rotenone], the ROS generation entry in the assay on TEX cells is “rapid increases”.
The same measure, in the same setting: the entry for antimycin is “rapid increases”.
